The text below walks through data of US12662489B2 (Sitryx Therapeutics Limited, priority 2023, dated 2026).

Structures are written as SMILES.

In assay [1] the target is T1, MTHFD1 recombinant human enzyme (Homo sapiens, UniProt P11586).
T1 sequence (P11586 2-291 limits assumed): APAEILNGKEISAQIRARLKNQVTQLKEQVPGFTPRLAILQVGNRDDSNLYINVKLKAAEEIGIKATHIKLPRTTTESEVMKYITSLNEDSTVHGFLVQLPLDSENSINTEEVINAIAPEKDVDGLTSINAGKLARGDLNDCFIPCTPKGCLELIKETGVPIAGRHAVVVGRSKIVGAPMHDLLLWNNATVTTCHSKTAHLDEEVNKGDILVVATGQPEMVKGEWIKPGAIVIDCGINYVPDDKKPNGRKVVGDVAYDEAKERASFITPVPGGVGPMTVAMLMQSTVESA
Put plainly: MTHFD1 inhibition assay (NAD(P)H-Glo luminescence). As to conditions: MTHFD1 IC50, recombinant human enzyme 200 nM, NADP, band.

The target of assay [2] is T2, MTHFD2 recombinant human enzyme (Homo sapiens, UniProt P13995).
T2 sequence (P13995 36-350): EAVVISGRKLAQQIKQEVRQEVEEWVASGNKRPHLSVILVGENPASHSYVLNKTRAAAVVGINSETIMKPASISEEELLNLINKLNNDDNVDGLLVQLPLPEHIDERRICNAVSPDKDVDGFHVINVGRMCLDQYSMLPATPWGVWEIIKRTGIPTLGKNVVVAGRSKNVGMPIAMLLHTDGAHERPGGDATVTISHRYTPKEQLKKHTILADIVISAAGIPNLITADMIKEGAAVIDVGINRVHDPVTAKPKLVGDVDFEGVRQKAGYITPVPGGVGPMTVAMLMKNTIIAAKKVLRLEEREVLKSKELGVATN
The assay can be described thus: MTHFD2 inhibition assay (NAD(P)H-Glo luminescence). As to conditions: for MTHFD1/MTHFD2 IC50 ratio: selectivity of MTHFD2 inhibition over MTHFD1, band.

For `COC[C@H]1CN(c2cc(C)c3c4c(c(=O)oc3c2C)CN(C(=O)c2cc(C(=O)NS(=O)(=O)N3CCCC3)c(OC3CCC3)cc2F)CC4)CCN1C` [Example 165, (R)-2-cyclobutoxy-4-fluoro-5-(8-(3-(methoxymethyl)-4-methylpiperazin-1-yl)-7,10-dimethyl-5-oxo-1,3,4,5-tetrahydro-2H-chromeno[3,4-c]pyridine-3-carbonyl)-N-(pyrrolidin-1-ylsulfonyl)benzamide], in assay [1], the concentration for half-maximal inhibition (IC50) is over 5000 nM. Moreover, in assay [2], the IC50 fell in the range of 100 to 1000 nM and the “MTHFD1/MTHFD2 IC50 ratio” value is “H (>9.0 to 30)”.

Regarding `COC[C@H]1CN(c2cc(C)c3c4c(c(=O)oc3c2C)CN(C(=O)c2cc(C(=O)NS(=O)(=O)N3CCCC3)cc(OC3CCC3)c2F)CC4)CCN1C` [Example 166, (R)-3-cyclobutoxy-4-fluoro-5-(8-(3-(methoxymethyl)-4-methylpiperazin-1-yl)-7,10-dimethyl-5-oxo-1,3,4,5-tetrahydro-2H-chromeno[3,4-c]pyridine-3-carbonyl)-N-(pyrrolidin-1-ylsulfonyl)benzamide], the IC50 in assay [1] is over 5000 nM. Also, in assay [2], the 50% inhibitory concentration (IC50) fell in the range of 100 to 1000 nM and the “MTHFD1/MTHFD2 IC50 ratio” value is on record as “G (^ 3 to 9.0)”.

As to `COC[C@H]1CN(c2cc(C)c3c4c(c(=O)oc3c2C)CN(C(=O)c2cc3c(c(C(=O)NS(=O)(=O)N5CCCC5)c2)OC2(CCC2)O3)CC4)CCN1C` [Example 167, (R)-6-(8-(3-(methoxymethyl)-4-methylpiperazin-1-yl)-7,10-dimethyl-5-oxo-1,3,4,5-tetrahydro-2H-chromeno[3,4-c]pyridine-3-carbonyl)-N-(pyrrolidin-1-ylsulfonyl)spiro[benzo[d][1,3]dioxole-2,1′-cyclobutane]-4-carboxamide], the half-maximal inhibitory concentration (IC50) in assay [1] was over 5000 nM. Also, in assay [2], the IC50 lay in the range of 100 to 1000 nM and the “MTHFD1/MTHFD2 IC50 ratio” value was “H (>9.0 to 30)”.

For `COC[C@H]1CN(c2cc(C)c3c4c(c(=O)oc3c2C)CN(C(=O)c2cc(C(=O)NS(=O)(=O)N3CCCC3)c3c(c2F)OC2(CCC2)O3)CC4)CCN1C` [Example 168, (R)-4-fluoro-5-(8-(3-(methoxymethyl)-4-methylpiperazin-1-yl)-7,10-dimethyl-5-oxo-1,3,4,5-tetrahydro-2H-chromeno[3,4-c]pyridine-3-carbonyl)-N-(pyrrolidin-1-ylsulfonyl)spiro[benzo[d][1,3]dioxole-2,1′-cyclobutane]-7-carboxamide], the IC50 in assay [1] was over 5000 nM. Also, in assay [2], the half-inhibitory concentration (IC50) was in the range of 1000 to 5000 nM and the “MTHFD1/MTHFD2 IC50 ratio” value is reported as “F (<3)”.

On to `COC[C@H]1CN(c2ccc3c4c(c(=O)oc3c2C)CN(C(=O)c2ccc(C(=O)NS(=O)(=O)N3CCCC3)c(OC3CCC3)c2F)CC4)CCN1C(C)C` [Example 170, (R)-2-cyclobutoxy-3-fluoro-4-(8-(4-isopropyl-3-(methoxymethyl)piperazin-1-yl)-7-methyl-5-oxo-1,3,4,5-tetrahydro-2H-chromeno[3,4-c]pyridine-3-carbonyl)-N-(pyrrolidin-1-ylsulfonyl)benzamide], for which the IC50 lay within 100 to 1000 nM in assay [1] and 10 to 100 nM in assay [2]. The “MTHFD1/MTHFD2 IC50 ratio” value in assay [2] is “G (^ 3 to 9.0)”.

Consider `CCN1CCN(c2ccc3c4c(c(=O)oc3c2C)CN(C(=O)c2ccc(C(=O)NS(=O)(=O)N3CCCC3)c(OC3CCC3)c2F)CC4)C[C@@H]1COC` [Example 172, (R)-2-cyclobutoxy-4-(8-(4-ethyl-3-(methoxymethyl)piperazin-1-yl)-7-methyl-5-oxo-1,3,4,5-tetrahydro-2H-chromeno[3,4-c]pyridine-3-carbonyl)-3-fluoro-N-(pyrrolidin-1-ylsulfonyl)benzamide], for which the IC50 in assay [1] was 10 to 100 nM. Besides, in assay [2], the IC50 was in the range of 10 to 100 nM and the “MTHFD1/MTHFD2 IC50 ratio” value is given as “F (<3)”.

Turning to `COC[C@H]1CN(c2ccc3c4c(c(=O)oc3c2C)CN(C(=O)c2ccc(C(=O)NS(=O)(=O)N3CCCC3)c(OC3CCC3)c2F)CC4)CCN1C1CC1` [Example 173, (R)-2-cyclobutoxy-4-(8-(4-cyclopropyl-3-(methoxymethyl)piperazin-1-yl)-7-methyl-5-oxo-1,3,4,5-tetrahydro-2H-chromeno[3,4-c]pyridine-3-carbonyl)-3-fluoro-N-(pyrrolidin-1-ylsulfonyl)benzamide], the 50% inhibitory concentration (IC50) in assay [1] is 1000 to 5000 nM. Further, in assay [2], the half-inhibitory concentration (IC50) was in the range of 1000 to 5000 nM and the “MTHFD1/MTHFD2 IC50 ratio” value is reported as “F (<3)”.

Consider `COC[C@H]1CN(c2ccc3c4c(c(=O)oc3c2C)CN(C(=O)c2ccc(C(=O)NS(=O)(=O)N3C5CCC3CC5)c(OC3CCC3)c2F)CC4)CCN1C` [Example 176, (R)—N-((7-azabicyclo[2.2.1]heptan-7-yl)sulfonyl)-2-cyclobutoxy-3-fluoro-4-(8-(3-(methoxymethyl)-4-methylpiperazin-1-yl)-7-methyl-5-oxo-1,3,4,5-tetrahydro-2H-chromeno[3,4-c]pyridine-3-carbonyl)benzamide], for which the IC50 in assay [1] and in assay [2] was 10 to 100 nM throughout. Moreover, the “MTHFD1/MTHFD2 IC50 ratio” value in assay [2] is “F (<3)”.

Take `COC[C@H]1CN(c2ccc3c4c(c(=O)oc3c2C)CN(C(=O)c2ccc(C(=O)NS(=O)(=O)N3[C@H](C)CC[C@H]3C)c(OC3CCC3)c2F)CC4)CCN1C` [Example 177, 2-cyclobutoxy-N-(((2R,5R)-2,5-dimethylpyrrolidin-1-yl)sulfonyl)-3-fluoro-4-(8-((R)-3-(methoxymethyl)-4-methylpiperazin-1-yl)-7-methyl-5-oxo-1,3,4,5-tetrahydro-2H-chromeno[3,4-c]pyridine-3-carbonyl)benzamide]: the IC50 in assay [1] fell in the range of 100 to 1000 nM. Also, in assay [2], the IC50 is 100 to 1000 nM and the “MTHFD1/MTHFD2 IC50 ratio” value is given as “F (<3)”.

Consider `COC[C@H]1CN(c2cc(C)c3c4c(c(=O)oc3c2C)CN(C(=O)c2ccc(C(=O)NS(=O)(=O)N(C)C)c(OC3CCC3)c2C)CC4)CCN1C` [Example 179], for which, in assay [1], the IC50 was in the range of 100 to 1000 nM. For the same molecule, in assay [2], the IC50 fell in the range of 10 to 100 nM and the “MTHFD1/MTHFD2 IC50 ratio” value was “G (^ 3 to 9.0)”.

Regarding `COC[C@H]1CN(c2cc(C)c3c4c(c(=O)oc3c2C)CN(C(=O)c2ccc(C(=O)NS(=O)(=O)C3(C)CC3)c(OC3CCC3)c2C)CC4)CCN1C` [Example 180, (R)-2-cyclobutoxy-4-(8-(3-(methoxymethyl)-4-methylpiperazin-1-yl)-7,10-dimethyl-5-oxo-1,3,4,5-tetrahydro-2H-chromeno[3,4-c]pyridine-3-carbonyl)-3-methyl-N-((1-methylcyclopropyl)sulfonyl)benzamide], in assay [1], the IC50 was 100 to 1000 nM. For the same molecule, in assay [2], the half-maximal inhibitory concentration (IC50) was 10 to 100 nM and the “MTHFD1/MTHFD2 IC50 ratio” value is “G (^ 3 to 9.0)”.

On to `COC[C@H]1CN(c2ccc3c4c(c(=O)oc3c2)CN(C(=O)c2ccc(C(=O)NS(=O)(=O)N3CCCC3)c(OC3CCC3)c2F)CC4)CCN1C` [Example 182, (R)-2-cyclobutoxy-3-fluoro-4-(8-(3-(methoxymethyl)-4-methylpiperazin-1-yl)-5-oxo-1,3,4,5-tetrahydro-2H-chromeno[3,4-c]pyridine-3-carbonyl)-N-(pyrrolidin-1-ylsulfonyl)benzamide], for which the half-maximal inhibitory concentration (IC50) fell in the range of 1000 to 5000 nM in assay [1] and 100 to 1000 nM in assay [2]. Further, the “MTHFD1/MTHFD2 IC50 ratio” value in assay [2] is “G (^ 3 to 9.0)”.

For the molecule `COC[C@H]1CN(c2ccc3c4c(c(=O)oc3c2)CN(C(=O)c2ccc(C(=O)NS(=O)(=O)N3CCCC3)c(OC3CCCC3)c2F)CC4)CCN1C` [Example 183, (R)-2-(cyclopentyloxy)-3-fluoro-4-(8-(3-(methoxymethyl)-4-methylpiperazin-1-yl)-5-oxo-1,3,4,5-tetrahydro-2H-chromeno[3,4-c]pyridine-3-carbonyl)-N-(pyrrolidin-1-ylsulfonyl)benzamide], the IC50 in assay [1] is over 5000 nM. Besides, in assay [2], the half-inhibitory concentration (IC50) is 100 to 1000 nM and the “MTHFD1/MTHFD2 IC50 ratio” value was “H (>9.0 to 30)”.

For the molecule `COC[C@H]1CN(c2cc(C)c3c4c(c(=O)oc3c2C)CN(C(=O)c2ccc(C(=O)NS(=O)(=O)N3CCCC3)cc2Cl)CC4)CCN1C` [Example 184, (R)-3-chloro-4-(8-(3-(methoxymethyl)-4-methylpiperazin-1-yl)-7,10-dimethyl-5-oxo-1,3,4,5-tetrahydro-2H-chromeno[3,4-c]pyridine-3-carbonyl)-N-(pyrrolidin-1-ylsulfonyl)benzamide], the IC50 in assay [1] was 1000 to 5000 nM. Moreover, in assay [2], the IC50 is 100 to 1000 nM and the “MTHFD1/MTHFD2 IC50 ratio” value was “J (>30)”.

`COC[C@H]1CN(c2cc(C)c3c4c(c(=O)oc3c2C)CN(C(=O)c2ccc(C(=O)NS(=O)(=O)N3C5CCC3CC5)cc2Cl)CC4)CCN1C` [Example 185, (R)-N-((7-azabicyclo[2.2.1]heptan-7-yl)sulfonyl)-3-chloro-4-(8-(3-(methoxymethyl)-4-methylpiperazin-1-yl)-7,10-dimethyl-5-oxo-1,3,4,5-tetrahydro-2H-chromeno[3,4-c]pyridine-3-carbonyl)benzamide]: the IC50 in assay [1] is over 5000 nM. Further, in assay [2], the IC50 was 100 to 1000 nM and the “MTHFD1/MTHFD2 IC50 ratio” value is given as “H (>9.0 to 30)”.
